SMILES strings stand for the structures. A value given as a limit tells only on which side of the number the result lay.

This passage reports EC50 results from US12435080B2, “sGC stimulators” (Tisento Therapeutics Inc., priority 2016, dated 2025).

The assay concerns the target T1, sGC (Rattus norvegicus, UniProt P20595).
T1 construct: Rat primary neurons were isolated from fetuses of 18-day pregnant Sprague-Dawley females; endogenous in cells; host or cells: Primary rat hippocampal neurons (E18 Sprague-Dawley fetuses)
T1 sequence (P20595 1-619): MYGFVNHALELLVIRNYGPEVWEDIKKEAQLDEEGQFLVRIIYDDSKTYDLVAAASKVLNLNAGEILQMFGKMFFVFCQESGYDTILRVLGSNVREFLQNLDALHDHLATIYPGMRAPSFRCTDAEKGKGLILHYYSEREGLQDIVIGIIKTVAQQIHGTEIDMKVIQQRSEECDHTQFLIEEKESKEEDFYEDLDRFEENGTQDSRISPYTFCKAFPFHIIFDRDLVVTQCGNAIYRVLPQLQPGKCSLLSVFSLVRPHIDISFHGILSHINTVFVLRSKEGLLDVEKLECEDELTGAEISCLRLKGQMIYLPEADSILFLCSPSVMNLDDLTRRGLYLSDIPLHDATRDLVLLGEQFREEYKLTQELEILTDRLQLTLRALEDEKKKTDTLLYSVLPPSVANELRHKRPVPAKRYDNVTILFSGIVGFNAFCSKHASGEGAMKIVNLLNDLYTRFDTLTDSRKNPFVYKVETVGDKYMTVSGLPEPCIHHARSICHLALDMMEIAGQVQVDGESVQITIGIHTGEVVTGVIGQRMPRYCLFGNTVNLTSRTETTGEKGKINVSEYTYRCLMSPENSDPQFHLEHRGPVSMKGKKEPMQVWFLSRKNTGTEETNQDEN
In words: cGMP neuronal cell-based assay. The note with it: rat primary hippocampal neurons; 30 μM DETA-NO; cGMP by LC-MS/MS; normalized to 10 μM Compound Y; compounds in Table IA; read-out: sGC-neuron Abs EC50. How it is done: Rat primary neurons were isolated from fetuses of 18-day pregnant Sprague-Dawley females. The fetuses were collected in Hanks' balanced salt solution (HBSS) and brains were rapidly removed. The cerebral hippocampi were isolated and mechanically fragmented. Further tissue digestion was performed with 0.25% (wt/vol) trypsin solution in HBSS without Ca2+ and Mg2+ for 15 min at 37° C. After trypsination, cells were washed and resuspended in neurobasal medium supplemented with 0.5 mM L-glutamine, 12.5 uM glutamic acid, 2% B-27 and 100U/mL penicillin, and 100 μg/mL streptomycin. Cells were plated at a density of 4×10^4 cells/well in a poly-D-lysine coated 384-well flat clear-bottom plate (Corning Cat No 354662). Cells were incubated 6-7 days at 37° C. in a humidified chamber with 5% CO2. Media was removed and cells were washed 1× with HBSS containing Ca2+ and Mg2+, and replaced with 40 uL HBSS containing 0.5 mM IBMX, and incubated for 15 minutes at 37° C. 10 uL of a 5× stock of test compounds with diethylenetriamine NONOate (DETA-NO) was added. Final concentration of DETA-NO was 30 μM. Cells were incubated for 20 min at 37° C. Medium was removed, 50 uL of ice-cold 10% acetic acid was added, and incubated for 60 minutes at 4° C. Following centrifugation at 4° C. for 5 minutes at 1000×g to pellet cell debris, the supernatant was aspirated to a clean plate and the samples were analyzed for cGMP content. cGMP concentrations were determined from each sample using LC-MS/MS.
Data were normalized to a high control using the following equation: 100*(Sample−Low Control)/(High Control−Low Control), where the low control is the average of 15 samples treated with 1% DMSO, and the high control is the average of 15 samples treated with 10 μM of the known sGC stimulator Compound Y (depicted in Example 2). Data were fit using a 4-parameter fit (log(agonist) vs. response—variable slope) using GraphPad Prism Software v.5. n=2 for all compounds. The Absolute EC50 was interpolated from the curve fit and is defined as the concentration at which a given compound elicits 50% of the high control response after data normalization. Compounds failing to elicit a minimum response of 50% are reported as >30 μM. For compounds run in duplicate or n higher than 2, the result herein given is the geometric mean of the several results obtained.

With `Fc1ccccc1Cn1nc(-c2nc(C3CC3(F)F)n[nH]2)c2cccnc21` (stereo not drawn) [Compound I-96, 3-(3-(2,2-Difluorocyclopropyl)-1H-1,2,4-triazol-5-yl)-1-(2-fluorobenzyl)-1H-pyrazolo[3,4-b]pyridine], the EC50 is at most 100 nM.

Turning to `Fc1cccc(Cn2nc(-c3nc(C(F)(F)F)n[nH]3)c3cccnc32)c1F` [Compound I-48, 1-(2,3-Difluorobenzyl)-3-(3-(trifluoromethyl)-1H-1,2,4-triazol-5-yl)-1H-pyrazolo[3,4-b]pyridine], the EC50 was at most 100 nM.

For the compound `FC(F)(F)c1n[nH]c(-c2nn(Cc3cncnc3)c3ncccc23)n1` [Compound I-4, 1-(Pyrimidin-5-ylmethyl)-3-(3-(trifluoromethyl)-1H-1,2,4-triazol-5-yl)-1H-pyrazolo[3,4-b]pyridine], the EC50 was at most 100 nM.

With `Cc1ncc(Cn2nc(-c3nc(C(F)(F)F)n[nH]3)c3ccccc32)cn1` [Compound I-62, 1-((2-methylpyrimidin-5-yl)methyl)-3-(3-(trifluoromethyl)-1H-1,2,4-triazol-5-yl)-1H-indazole], the EC50 was at most 100 nM.

On to `FC(F)(F)c1n[nH]c(-c2nn(Cc3ccccc3)c3ncccc23)n1` [Compound I-49, 1-Benzyl-3-(3-(trifluoromethyl)-1H-1,2,4-triazol-5-yl)-1H-pyrazolo[3,4-b]pyridine], for which the EC50 was at most 100 nM.

Regarding `N#Cc1n[nH]c(-c2nn(Cc3ccccc3F)c3ncccc23)n1` [Compound I-41], the EC50 was at most 100 nM.

Turning to `FC(F)(F)c1n[nH]c(-c2nn(CCC(F)(F)C(F)(F)F)c3ncccc23)n1` [Compound I-2, 1-(3,3,4,4,4-pentafluorobutyl)-3-(3-(trifluoromethyl)-1H-1,2,4-triazol-5-yl)-1H-pyrazolo[3,4-b]pyridine], the EC50 is at most 100 nM.

For `Fc1cccc(Cn2nc(-c3nc(Cl)n[nH]3)c3cccnc32)c1F` [Compound I-86, 3-(3-Chloro-1H-1,2,4-triazol-5-yl)-1-(2,3-difluorobenzyl)-1H-pyrazolo[3,4-b]pyridine], the EC50 is at most 100 nM.

With `Fc1ccccc1Cc1nn(-c2nc(C(F)(F)F)n[nH]2)c2cccnc12` [Compound I-31, 3-(2-Fluorobenzyl)-1-(3-(trifluoromethyl)-1H-1,2,4-triazol-5-yl)-1H-pyrazolo[4,3-b]pyridine], the EC50 is at most 100 nM.

For `Fc1ccccc1Cc1nn(-c2nc(C(F)F)n[nH]2)c2cccnc12` [Compound I-101, 1-(3-(Difluoromethyl)-1H-1,2,4-triazol-5-yl)-3-(2-fluorobenzyl)-1H-pyrazolo[4,3-b]pyridine], the EC50 is at most 100 nM.

As for `OCc1n[nH]c(-c2nn(Cc3ccccc3F)c3ncccc23)n1` [Compound I-64, (5-(1-(2-fluorobenzyl)-1H-pyrazolo[3,4-b]pyridin-3-yl)-1H-1,2,4-triazol-3-yl)methanol], the EC50 was at most 100 nM.

In the case of `Fc1cccc(Cc2nn(-c3nc(C(F)(F)F)n[nH]3)c3cccnc23)c1F` [Compound I-105, 3-(2,3-Difluorobenzyl)-1-(3-(trifluoromethyl)-1H-1,2,4-triazol-5-yl)-1H-pyrazolo[4,3-b]pyridine], the EC50 was at most 100 nM.

Usually EC50 stands for the concentration giving half of the maximal effect.
